Reference: PMC7787731, “Synthesis and Characterization of New Dihydronaphthalene Candidates as Potent Cytotoxic Agents against MCF-7 Human Cancer Cells” (BioMed Research International, 2020)
Read-outs that look alike come from different tables or passages of the source.

Columns and labels:
[1] = test system: MCF-7 (human breast adenocarcinoma) cell lines; assay: In vitro cytotoxicity MTT assay against breast cancer MCF-7 cells
Description: Both MCF-7 and MCF10A cells were purchased from American Type Culture Collection (ATCC). Cells were grown in DMEM culture medium (Invitrogen/Life Technologies) supplemented with 10% FBS (Hyclone, USA), 10 μg/mL insulin (Sigma), and 1% penicillin-streptomycin antibiotic solution. Chemicals used were of cell culture grade and were purchased from Sigma or Invitrogen. Prior to the assay, cells (cells density 1.2–1.8 × 10,000 cells/well) were plated in 96-well plate with 100 μL medium and were allowed to grow for 24 h.
In vitro cytotoxic activity of the prepared compounds against breast (MCF-7) cancer cells was assessed using MTT assay [24, 25]. The assay depends on the mitochondrial reduction of the colorless 3-(4,5-methyl-2-thiazolyl)-2,5-diphenyl-2H-tetrazolium bromide (MTT) within viable cells into a dark blue formazan product. […] The supernatant was taken away from each well, and 100 μL of DMSO was added to each well to dissolve the formazan crystals. After mixing with a mechanical plate mixer, a microplate reader was used to measure the absorbance of each well at a wavelength of 570 nm. […] IC50 values were calculated from the linear regression of the corresponding calibration curves using the Origin® 6.1 software.
Results were analyzed with the help of SPSS 9.0 and were presented as mean ± SD of three replicates. The mean comparison between different evaluated groups was performed using ANOVA one-way analysis of variance. Statistical significance was defined when p < 0.05.

[2] = test system: normal epithelial breast cells (MCF10A); assay: In vitro cytotoxicity MTT assay against normal breast MCF10A cells; type: cell-based; settings: for IC50: Homo sapiens, MCF-10A, MTT assay, normal breast cell line, mean ± SD of three replicates
Text: Statistical significance was defined when p < 0.05.

[3] = Homo sapiens, MCF7, 72 h, read-out: IC50 (μM) MCF-7, MTT assay, 0.39-100 μM, 3 days, mean ± SD of three replicates

melting point | Structure (SMILES) | IC50 [1, 3] | IC50 [2] | less toxic than Saturosporin towards MCF01A normal cells ([2]; compared with Saturosporin as worded) | IC50 ([1]; read-out: IC50 (μM) MCF-7, MTT assay, 0.39-100 μM, 3 days, mean ± SD of three replicates) | decrease in cytotoxicity relative to N-ethyl thiourea derivative 3d ([1]; MCF-7, N-4-bromophenyl versus N-ethyl substitution)
223 °C | COc1ccc2c(c1)CCCC2=Nn1c2c(sc1=Nc1ccc(Oc3ccccc3)cc1)C(c1ccc([N+](=O)[O-])cc1)C(C#N)=C(N)O2 (stereo not drawn) [Compound 5e, 5-Amino-3-((6-methoxy-3,4-dihydronaphthalen-1(2H)-ylidene)amino)-7-(4-nitrophenyl)-2-((4-phenoxyphenyl)imino)--3,7-dihydro-2H-pyrano [2,3-d]thiazole-6-carbonitrile] | 2.36 ± 0.06 µM | 14.1 ± 0.36 µM |  |  | 
247 °C | COc1ccc(C2C(C#N)=C(N)Oc3c2sc(=Nc2ccc(Br)cc2)n3N=C2CCCc3cc(OC)ccc32)cc1 (stereo not drawn) [Compound 5a, 5-Amino-2-((4-bromophenyl)imino)-3-((6-methoxy-3,4-dihydronaphthalen-1(2H)-ylidene)amino)-7-(4-methoxyphenyl)-3,7-dihydro-2H-pyrano [2,3-d]thiazole-6-carbonitrile] | 0.93 ± 0.02 µM | 17.2 ± 0.44 µM | about 18.45 folds |  | 
286 °C | COc1ccc2c(c1)CCCC2=Nn1c(=Nc2ccc(Br)cc2)sc2cc(C#N)c(=S)[nH]c21 [Compound 10, 2-((4-Bromophenyl)imino)-3-((6-methoxy-3,4-dihydronaphthalen-1(2H)-ylidene)amino)-5-thioxo-2,3,4,5-tetrahydrothiazolo [4,5-b]pyridine-6-carbonitrile] | 2.83 ± 0.07 µM | 15 ± 0.39 µM |  |  | 
236 °C | COc1ccc2c(c1)CCCC2=NN1C(=O)C(=CN(C)C)SC1=Nc1ccc(Br)cc1 [Compound 6, 2-((4-Bromophenyl)imino)-5-((dimethylamino)methylene)-3-((6-methoxy-3,4-dihydronaphthalene-1(2H)-ylidene)amino)thiazolidin-4-one] | 7.48 ± 0.19 µM | 17.78 ± 0.16 µM |  |  | 
152 °C | COc1ccc2c(c1)CCCC2=NN1C(=O)C(=CNc2nccs2)SC1=Nc1ccc(Br)cc1 [Compound 12, 2-(4-Bromophenylimino)-3-((6-methoxy-3,4-dihydronaphthalen-1(2H)-ylidene)amino)-5-((thiazol-2-ylamino)methylene)thiazolidin-4-one] |  |  |  |  | 
128 °C | COc1ccc2c(c1)CCC/C2=N\n1/c(=N/c2ccc(Br)cc2)sc2cc(C(C)=O)c(C)nc21 [Compound 8] | 20 µM | 43.7 ± 0.59 µM |  | 20 ± 0.52 µM | 
117 °C | CCN=C1SCC(=O)N1N=C1CCCc2cc(OC)ccc21 [Compound 4d, 2-(Ethylimino)-3-((6-methoxy-3,4-dihydronaphthalen-1(2H)-ylidene)amino)thiazolidin-4-one] | 10.1 ± 0.26 µM | 30.7 ± 0.53 µM |  |  | 
171 °C | COc1ccc2c(c1)CCCC2=NN1C(=O)CSC1=Nc1ccc(Oc2ccccc2)cc1 [Compound 4c, 3-((6-Methoxy-3,4-dihydronaphthalen-1(2H)-ylidene)amino)-2-((4-phenoxyphenyl)imino) thiazolidin-4-one] |  |  |  |  | 
220 °C | COc1ccc2c(c1)CCCC2=NN1C(=O)C(=CNc2nc3ccccc3[nH]2)SC1=Nc1ccc(Br)cc1 [Compound 11, 5-((1H-Benzo [d]imidazol-2-ylamino)methylene)-2-(4-bromophenylimino)-3-((6-methoxy-3,4-dihydronaphthalen-1(2H)-ylidene)amino)thiazolidin-4-one] |  |  |  |  | 
280 °C | COc1ccc2c(c1)CCCC2=Nn1c2c(sc1=Nc1ccc(Oc3ccccc3)cc1)C(c1ccco1)C(C#N)=C(N)O2 (stereo not drawn) [Compound 5f, 5-Amino-7-(furan-2-yl)-3-((6-methoxy-3,4-dihydronaphthalen-1(2H)-ylidene)amino)-2-((4-phenoxyphenyl)imino)-3,7-dihydro-2H-pyrano [2,3-d]thiazole-6-carbonitrile] |  |  |  |  | 
190 °C | COc1ccc2c(c1)CCCC2=NN1C(=O)CSC1=Nc1ccc(F)cc1 [Compound 4b, 2-((4-Fluorophenyl)imino)-3-((6-methoxy-3,4-dihydronaphthalen-1(2H)-ylidene)amino) thiazolidin-4-one] | 10.2 ± 0.26 µM | 29.2 ± 0.36 µM |  |  | 
224 °C | COc1ccc2c(c1)CCCC2=Nn1c(=Nc2ccc(Br)cc2)sc2cc(C#N)c(=O)[nH]c21 [Compound 9, 2-((4-Bromophenyl)imino)-3-((6-methoxy-3,4-dihydronaphthalen-1(2H)-ylidene)amino)-5-oxo-2,3,4,5-tetrahydrothiazolo [4,5-b]pyridine-6-carbonitrile] |  |  |  |  | 
213 °C | COc1ccc2c(c1)CCCC2=Nn1c2c(sc1=Nc1ccc(Br)cc1)C(c1ccc([N+](=O)[O-])cc1)C(C#N)=C(N)O2 (stereo not drawn) [Compound 5b, 5-Amino-2-((4-bromophenyl)imino)-3-((6-methoxy-3,4-dihydronaphthalen-1(2H)-ylidene)amino)-7-(4-nitrophenyl)-3,7-dihydro-2H-pyrano [2,3-d]thiazole-6-carbonitrile] |  |  |  |  | 
209 °C | COc1ccc(C2C(C#N)=C(N)Oc3c2sc(=Nc2ccc(Oc4ccccc4)cc2)n3N=C2CCCc3cc(OC)ccc32)cc1 (stereo not drawn) [Compound 5d, 5-Amino-3-((6-methoxy-3,4-dihydronaphthalen-1(2H)-ylidene)amino)-7-(4-methoxyphenyl) -2-((4-phenoxyphenyl)imino)--3,7-dihydro-2H-pyrano [2,3-d]thiazole-6-carbonitrile] | 1.76 ± 0.04 µM | 16.3 ± 0.42 µM |  |  | 
183 °C | COc1ccc2c(c1)CCCC2=NN1C(=O)CSC1=Nc1ccc(Br)cc1 [Compound 4a, 2-((4-Bromophenyl)imino)-3-((6-methoxy-3,4-dihydronaphthalen-1(2H)-ylidene)amino) thiazolidin-4-one] | 28.6 ± 0.74 µM | 68 ± 0.86 µM |  |  | 
90 °C | CCOC(=O)c1cc2sc(=Nc3ccc(Br)cc3)n(N=C3CCCc4cc(OC)ccc43)c2nc1C [Compound 7, Ethyl-2-((4-bromophenyl)imino)-3-((6-methoxy-3,4-dihydronaphthalen-1(2H)-ylidene)amino)-5-methyl-2,3-dihydrothiazolo [4,5-b]pyridine-6-carboxylate] |  |  |  |  | 
191 to 193 °C | COc1ccc2c(c1)CCCC2=NNC(=S)Nc1ccc(Br)cc1 [Compound 3a, N-(4-Bromophenyl)-2-(6-methoxy-3,4-dihydronaphthalen-1(2H)-ylidene)hydrazine-1-carbo thioamide] | 12.7 ± 0.33 µM | 35.4 ± 0.64 µM |  |  | more than 3 times
171 °C | COc1ccc2c(c1)CCCC2=NNC(=S)Nc1ccc(Oc2ccccc2)cc1 [Compound 3c, 2-(6-Methoxy-3,4-dihydronaphthalen-1(2H)-ylidene)-N-(4-phenoxyphenyl)-hydrazine-1-carbo thioamide] |  |  |  |  | 
154 to 156 °C | COc1ccc2c(c1)CCCC2=NNC(=S)Nc1ccc(F)cc1 [Compound 3b, N-(4-Fluorophenyl)-2-(6-methoxy-3,4-dihydronaphthalen-1(2H)-ylidene)hydrazine-1-carbo thioamide] |  |  |  |  | 
150 to 153 °C | CCNC(=S)NN=C1CCCc2cc(OC)ccc21 [Compound 3d, N-(4-Ethyl)-2-(6-methoxy-3,4-dihydronaphthalen-1(2H)-ylidene)hydrazine-1-carbothioamide] | 3.73 ± 0.09 µM | 19.7 ± 0.51 µM |  |  | 
